For assay [1], the target named is Cyclin-dependent kinase 5 (Homo sapiens, UniProt Q00535).
Assay [2] addresses T1, Dual specificity mitogen-activated protein kinase kinase 3 (Homo sapiens, UniProt P46734).
T1 sequence (P46734 whole entry): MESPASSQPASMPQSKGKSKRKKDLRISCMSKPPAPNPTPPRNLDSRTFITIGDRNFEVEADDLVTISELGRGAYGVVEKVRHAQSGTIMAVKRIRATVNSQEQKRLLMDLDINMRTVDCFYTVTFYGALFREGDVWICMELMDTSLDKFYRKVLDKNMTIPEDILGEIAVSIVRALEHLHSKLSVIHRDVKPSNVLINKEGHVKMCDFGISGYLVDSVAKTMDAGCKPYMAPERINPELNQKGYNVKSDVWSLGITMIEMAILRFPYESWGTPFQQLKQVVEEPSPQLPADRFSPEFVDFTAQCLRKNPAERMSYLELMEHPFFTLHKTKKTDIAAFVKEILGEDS

Assay [3] has as its target Mitogen-activated protein kinase kinase kinase 1 (Homo sapiens, UniProt Q13233).
The target in assay [4] is Mitogen-activated protein kinase 1 (Homo sapiens, UniProt P28482).
Chain of Mitogen-activated protein kinase 1 (P28482 whole entry): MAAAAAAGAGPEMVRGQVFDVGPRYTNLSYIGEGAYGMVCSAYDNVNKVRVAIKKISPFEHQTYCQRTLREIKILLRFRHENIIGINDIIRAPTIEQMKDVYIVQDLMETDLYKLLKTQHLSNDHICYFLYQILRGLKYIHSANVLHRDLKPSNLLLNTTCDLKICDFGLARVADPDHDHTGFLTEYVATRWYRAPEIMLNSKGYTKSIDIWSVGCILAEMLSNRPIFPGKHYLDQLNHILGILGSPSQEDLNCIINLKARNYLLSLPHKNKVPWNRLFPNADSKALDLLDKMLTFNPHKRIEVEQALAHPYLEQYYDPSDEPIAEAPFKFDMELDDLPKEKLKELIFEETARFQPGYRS
Assay [5] deals with T2, Serine/threonine-protein kinase Nek1 (Homo sapiens, UniProt Q96PY6).
T2 sequence (Q96PY6 whole entry): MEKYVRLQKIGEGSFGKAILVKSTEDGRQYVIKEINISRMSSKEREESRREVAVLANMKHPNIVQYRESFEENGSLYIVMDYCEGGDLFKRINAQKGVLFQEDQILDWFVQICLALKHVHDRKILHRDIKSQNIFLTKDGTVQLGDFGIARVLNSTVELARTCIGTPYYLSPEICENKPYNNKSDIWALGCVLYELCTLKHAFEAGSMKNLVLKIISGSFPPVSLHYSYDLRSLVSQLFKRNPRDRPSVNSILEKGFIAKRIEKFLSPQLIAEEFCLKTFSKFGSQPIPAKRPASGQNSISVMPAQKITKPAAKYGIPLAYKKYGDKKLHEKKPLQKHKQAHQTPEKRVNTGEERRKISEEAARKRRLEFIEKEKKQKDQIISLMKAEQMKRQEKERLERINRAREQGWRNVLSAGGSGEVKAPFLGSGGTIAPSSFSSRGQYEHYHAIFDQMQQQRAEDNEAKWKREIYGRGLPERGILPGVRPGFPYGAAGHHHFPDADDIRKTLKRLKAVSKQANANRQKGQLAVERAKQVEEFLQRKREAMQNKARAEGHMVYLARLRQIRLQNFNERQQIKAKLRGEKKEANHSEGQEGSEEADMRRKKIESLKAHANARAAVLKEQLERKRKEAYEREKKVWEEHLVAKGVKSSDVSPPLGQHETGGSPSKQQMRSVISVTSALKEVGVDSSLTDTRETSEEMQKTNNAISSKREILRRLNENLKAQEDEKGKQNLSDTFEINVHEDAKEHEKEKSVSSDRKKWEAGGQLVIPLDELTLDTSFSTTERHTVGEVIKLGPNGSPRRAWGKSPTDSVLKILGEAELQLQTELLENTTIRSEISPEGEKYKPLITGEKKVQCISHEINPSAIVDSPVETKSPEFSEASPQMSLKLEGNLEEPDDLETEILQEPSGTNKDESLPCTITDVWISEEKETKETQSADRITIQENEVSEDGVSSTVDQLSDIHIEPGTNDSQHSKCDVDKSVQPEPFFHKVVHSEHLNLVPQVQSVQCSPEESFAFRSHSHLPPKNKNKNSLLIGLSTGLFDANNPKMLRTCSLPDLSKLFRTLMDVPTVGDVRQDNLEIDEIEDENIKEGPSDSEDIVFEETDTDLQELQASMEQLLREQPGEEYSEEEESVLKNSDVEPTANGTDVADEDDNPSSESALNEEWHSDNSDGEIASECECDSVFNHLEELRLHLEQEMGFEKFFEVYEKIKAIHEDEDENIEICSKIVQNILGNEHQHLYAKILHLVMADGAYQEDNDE

For assay [6], the target named is T3, Membrane-associated tyrosine- and threonine-specific cdc2-inhibitory kinase (Homo sapiens, UniProt Q99640).
T3 sequence (Q99640 whole entry): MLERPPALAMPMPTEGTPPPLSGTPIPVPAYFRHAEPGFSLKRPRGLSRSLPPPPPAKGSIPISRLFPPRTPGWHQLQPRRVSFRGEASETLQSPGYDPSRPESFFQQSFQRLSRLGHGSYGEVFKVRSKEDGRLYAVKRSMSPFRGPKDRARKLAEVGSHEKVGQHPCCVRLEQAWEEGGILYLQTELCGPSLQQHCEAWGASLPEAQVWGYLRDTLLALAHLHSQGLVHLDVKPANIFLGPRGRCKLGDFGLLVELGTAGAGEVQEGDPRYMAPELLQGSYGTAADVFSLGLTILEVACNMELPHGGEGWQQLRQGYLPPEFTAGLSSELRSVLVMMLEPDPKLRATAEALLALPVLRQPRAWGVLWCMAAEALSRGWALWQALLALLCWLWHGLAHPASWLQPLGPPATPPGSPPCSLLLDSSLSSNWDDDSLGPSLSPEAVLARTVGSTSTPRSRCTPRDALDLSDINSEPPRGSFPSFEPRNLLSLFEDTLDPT

The target of assay [7] is Ras-related protein Rab-6A (Homo sapiens, UniProt P20340).
Chain of Ras-related protein Rab-6A (P20340 whole entry): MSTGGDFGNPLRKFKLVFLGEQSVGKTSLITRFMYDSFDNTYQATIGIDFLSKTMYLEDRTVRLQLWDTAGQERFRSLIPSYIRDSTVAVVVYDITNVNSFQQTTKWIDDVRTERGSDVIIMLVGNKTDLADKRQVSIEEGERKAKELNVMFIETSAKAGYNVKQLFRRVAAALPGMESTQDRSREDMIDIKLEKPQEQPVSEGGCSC
Assay [8] addresses T4, STE20-related kinase adapter protein alpha (Homo sapiens, UniProt Q7RTN6).
T4 sequence (Q7RTN6 whole entry): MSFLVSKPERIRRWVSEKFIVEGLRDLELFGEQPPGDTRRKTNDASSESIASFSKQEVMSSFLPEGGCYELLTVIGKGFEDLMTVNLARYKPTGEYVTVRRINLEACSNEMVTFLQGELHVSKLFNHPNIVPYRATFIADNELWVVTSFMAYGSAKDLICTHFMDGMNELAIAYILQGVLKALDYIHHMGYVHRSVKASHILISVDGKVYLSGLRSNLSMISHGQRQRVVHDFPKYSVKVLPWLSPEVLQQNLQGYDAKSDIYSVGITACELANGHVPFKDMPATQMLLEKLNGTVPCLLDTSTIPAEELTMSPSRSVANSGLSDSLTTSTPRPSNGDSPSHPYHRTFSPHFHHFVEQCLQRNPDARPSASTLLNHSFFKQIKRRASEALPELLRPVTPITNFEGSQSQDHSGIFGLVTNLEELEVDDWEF

Calls of active or inactive are those of the source.

A word on the Kd: it is the constant that tells how readily two partners part at equilibrium.
Further: in the data inactive means no Kd found up to 30 µM.

Chain of Mitogen-activated protein kinase kinase kinase 1 (Q13233 whole entry): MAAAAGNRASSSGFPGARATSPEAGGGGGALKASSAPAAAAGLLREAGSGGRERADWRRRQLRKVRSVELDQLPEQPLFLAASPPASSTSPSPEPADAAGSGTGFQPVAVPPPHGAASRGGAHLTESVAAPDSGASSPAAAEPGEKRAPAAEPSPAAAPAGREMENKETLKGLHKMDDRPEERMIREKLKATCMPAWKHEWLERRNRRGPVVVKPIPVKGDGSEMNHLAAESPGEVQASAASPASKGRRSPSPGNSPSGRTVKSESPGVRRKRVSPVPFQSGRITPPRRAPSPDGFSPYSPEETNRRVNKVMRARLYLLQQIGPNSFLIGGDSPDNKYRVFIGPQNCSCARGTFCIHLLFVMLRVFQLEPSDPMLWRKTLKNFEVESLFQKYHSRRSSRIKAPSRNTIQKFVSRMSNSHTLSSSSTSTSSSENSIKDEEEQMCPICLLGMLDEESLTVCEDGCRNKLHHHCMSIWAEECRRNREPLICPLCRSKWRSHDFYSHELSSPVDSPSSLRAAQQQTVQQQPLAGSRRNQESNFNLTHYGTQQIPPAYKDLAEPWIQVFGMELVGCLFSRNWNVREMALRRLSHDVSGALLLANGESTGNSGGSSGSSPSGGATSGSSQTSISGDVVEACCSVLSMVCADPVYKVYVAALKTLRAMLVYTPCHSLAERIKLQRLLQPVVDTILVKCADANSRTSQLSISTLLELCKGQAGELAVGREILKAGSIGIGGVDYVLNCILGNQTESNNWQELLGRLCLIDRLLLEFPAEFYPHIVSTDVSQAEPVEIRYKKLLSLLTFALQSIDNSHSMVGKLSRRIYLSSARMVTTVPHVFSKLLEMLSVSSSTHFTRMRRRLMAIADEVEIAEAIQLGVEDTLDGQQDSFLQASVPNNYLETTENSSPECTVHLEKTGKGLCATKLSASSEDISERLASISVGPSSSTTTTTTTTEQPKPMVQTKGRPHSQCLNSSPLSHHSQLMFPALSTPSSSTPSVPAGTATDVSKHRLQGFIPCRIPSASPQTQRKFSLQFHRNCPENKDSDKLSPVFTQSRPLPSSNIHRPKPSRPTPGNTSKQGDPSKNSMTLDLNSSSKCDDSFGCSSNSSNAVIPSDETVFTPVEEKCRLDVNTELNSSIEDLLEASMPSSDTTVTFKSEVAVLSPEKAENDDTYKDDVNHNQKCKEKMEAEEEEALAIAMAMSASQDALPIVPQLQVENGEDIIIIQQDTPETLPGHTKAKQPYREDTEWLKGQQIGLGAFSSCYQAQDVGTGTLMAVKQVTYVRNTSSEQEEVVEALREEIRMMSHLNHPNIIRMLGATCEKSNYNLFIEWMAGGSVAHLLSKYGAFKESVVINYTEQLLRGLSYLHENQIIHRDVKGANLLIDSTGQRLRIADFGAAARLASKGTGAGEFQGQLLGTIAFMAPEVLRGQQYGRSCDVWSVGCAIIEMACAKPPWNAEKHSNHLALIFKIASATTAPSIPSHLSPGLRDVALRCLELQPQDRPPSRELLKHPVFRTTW
Chain of Cyclin-dependent kinase 5 (Q00535 whole entry): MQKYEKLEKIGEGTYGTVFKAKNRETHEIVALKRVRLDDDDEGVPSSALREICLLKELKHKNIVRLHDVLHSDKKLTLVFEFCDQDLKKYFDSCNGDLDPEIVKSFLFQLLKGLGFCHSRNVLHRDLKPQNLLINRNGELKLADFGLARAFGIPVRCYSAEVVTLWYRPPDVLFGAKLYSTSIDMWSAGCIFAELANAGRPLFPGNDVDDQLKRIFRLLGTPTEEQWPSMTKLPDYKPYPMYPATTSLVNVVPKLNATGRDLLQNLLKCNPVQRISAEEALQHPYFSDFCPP

Consider `C=CC(=O)Nc1cccc(Nc2nc(Nc3ccc(N4CCN(C(C)=O)CC4)cc3OC)ncc2C(F)(F)F)c1` [ROCILETINIB], for which the Kd in assay [1], in assay [2], in assay [3], in assay [4], in assay [5] and in assay [6] was > 30 µM (inactive) throughout. Also, the Kd in assay [7] and in assay [8] was > 30 µM (inactive) in each case.
As to `CCc1cc2c(cc1N1CCC(N3CCOCC3)CC1)C(C)(C)c1[nH]c3cc(C#N)ccc3c1C2=O` [ALECTINIB], the Kd in assay [1], in assay [2], in assay [3], in assay [4], in assay [5] and in assay [6] was > 30 µM (inactive) in each case. Besides, the Kd in assay [7] and in assay [8] was > 30 µM (inactive) in each case.
For `COc1cc2ncnc(Nc3ccc(F)c(Cl)c3)c2cc1NC(=O)/C=C/CN1CCCCC1` [DACOMITINIB ANHYDROUS], the Kd in assay [1], in assay [2], in assay [3], in assay [4], in assay [5] and in assay [6] was > 30 µM (inactive) each time. For the same molecule, the Kd in assay [7] and in assay [8] was > 30 µM (inactive) throughout.
Regarding `Cc1c(NC(=O)OC[C@@H]2COCCN2)cn2ncnc(Nc3ccc4c(cnn4Cc4cccc(F)c4)c3)c12` [AC-480], the Kd in assay [1], in assay [2], in assay [3], in assay [4], in assay [5] and in assay [6] was > 30 µM (inactive) throughout. The Kd in assay [7] and in assay [8] was > 30 µM (inactive) in each case.
Take `Cc1cc(-c2cc(OC(=O)c3ccccc3)ccc2Cl)cc2nnc(Nc3ccc(OCCN4CCCC4)cc3)nc12` [TG100-801]: the Kd in assay [1], in assay [2], in assay [3], in assay [4], in assay [5] and in assay [6] was > 30 µM (inactive) in each case. For the same molecule, the Kd in assay [7] and in assay [8] was > 30 µM (inactive) throughout.
Take `COc1cc2nccc(Oc3ccc(NC(=O)C4(C(=O)Nc5ccc(F)cc5)CC4)cc3)c2cc1OC` [CABOZANTINIB]: the Kd in assay [1], in assay [2], in assay [3], in assay [4], in assay [5] and in assay [6] was > 30 µM (inactive) each time. The Kd in assay [7] and in assay [8] was > 30 µM (inactive) throughout.
With `Cc1c(Cn2c(C)nc3c(C(=O)O)cc(N4CCOCC4)cc32)cccc1C(F)(F)F` [GSK-2636771], the Kd in assay [1], in assay [2], in assay [3], in assay [4], in assay [5] and in assay [6] was > 30 µM (inactive) throughout. Further, the Kd in assay [7] and in assay [8] was > 30 µM (inactive) throughout.
Regarding `Cc1cc(Nc2nc(N[C@@H](C)c3ncc(F)cn3)ncc2Cl)n[nH]1` [AZD-1480], the Kd in assay [1], in assay [2], in assay [3], in assay [4], in assay [5] and in assay [6] was > 30 µM (inactive) each time. Besides, the Kd in assay [7] was > 30 µM (inactive); in assay [8] it was 0.316 µM.
Turning to `Cc1ccc(C(=O)Nc2ccc(Oc3cc4cnn(C)c4cc3-c3cn[nH]c3)c(F)c2)c(=O)n1-c1ccc(F)cc1` [MERESTINIB], the Kd in assay [1], in assay [2], in assay [3], in assay [4], in assay [5] and in assay [6] was > 30 µM (inactive) in each case. The Kd in assay [7] and in assay [8] was > 30 µM (inactive) throughout.
As for `CNC(=O)c1cc(COc2nnc(Nc3ccc(Cl)cc3)c3ccoc23)ccn1` [TELATINIB], the Kd in assay [1], in assay [2], in assay [3], in assay [4], in assay [5] and in assay [6] was > 30 µM (inactive) throughout. For the same molecule, the Kd in assay [7] and in assay [8] was > 30 µM (inactive) each time.
Regarding `CNC(=O)c1cccc(-c2ccc3c(N4CCOC[C@@H]4C)nc(N4CCOC[C@@H]4C)nc3n2)c1` [VISTUSERTIB], the Kd in assay [1], in assay [2], in assay [3], in assay [4], in assay [5] and in assay [6] was > 30 µM (inactive) in each case. The Kd in assay [7] and in assay [8] was > 30 µM (inactive) each time.
Take `O=C(NC[C@H](O)CO)c1ccncc1Nc1ccc(I)cc1F` [PIMASERTIB]: the Kd in assay [1], in assay [2], in assay [3], in assay [4], in assay [5] and in assay [6] was > 30 µM (inactive) throughout. Besides, the Kd in assay [7] and in assay [8] was > 30 µM (inactive) each time.
As to `O=C(NOC[C@H](O)CO)c1ccc(F)c(F)c1Nc1ccc(I)cc1F` [MIRDAMETINIB], the Kd in assay [1], in assay [2], in assay [3], in assay [4], in assay [5] and in assay [6] was > 30 µM (inactive) in each case. Further, the Kd in assay [7] and in assay [8] was > 30 µM (inactive) in each case.

These data come from ChEMBL document CHEMBL3991601, “The target landscape of clinical kinase drugs” (Science, 2017).
